{"source": "paper PMC12064818", "about": "“A general assay platform to study protein pharmacology using ligand-dependent structural dynamics” (Nature Communications, 2025)", "key": {"[1]": {"target": "firefly luciferase (FLuc) (Photinus pyralis, UniProt P08659)", "sequence (P08659 whole entry)": "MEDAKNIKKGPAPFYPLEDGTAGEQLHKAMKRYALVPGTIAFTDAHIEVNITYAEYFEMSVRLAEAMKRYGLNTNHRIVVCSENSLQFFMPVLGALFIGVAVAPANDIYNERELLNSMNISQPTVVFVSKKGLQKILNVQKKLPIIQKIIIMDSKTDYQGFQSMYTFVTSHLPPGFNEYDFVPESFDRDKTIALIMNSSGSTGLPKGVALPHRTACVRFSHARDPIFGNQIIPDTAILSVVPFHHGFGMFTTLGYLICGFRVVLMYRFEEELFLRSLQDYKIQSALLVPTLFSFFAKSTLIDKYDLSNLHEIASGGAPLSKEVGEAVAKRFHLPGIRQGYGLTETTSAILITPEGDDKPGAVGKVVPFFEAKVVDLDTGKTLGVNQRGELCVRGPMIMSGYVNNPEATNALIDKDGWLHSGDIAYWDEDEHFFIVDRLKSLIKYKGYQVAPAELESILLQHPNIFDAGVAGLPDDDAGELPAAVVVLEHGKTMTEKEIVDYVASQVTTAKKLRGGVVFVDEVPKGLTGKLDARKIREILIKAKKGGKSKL", "assay": "Thermal shift profiles (Thermofluor assay), FLuc;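 for all read-outs here: normalized first derivative of fluorescence (dF/dT) at the stated temperature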", "assay_type": "binding", "set-up": "unit of the concentration uncertain", "conditions": "52.782 °C; compound 100 (unit uncertain)", "procedure": "Thermal stabilization of proteins in the presence of the ligands were determined using Thermofluor technique. MicroAmp optical 384-well plates (Applied Biosystems by Life Technologies), ViiA 7 real-time PCR instrument (Applied Biosystems by Life Technologies) and SYPRO Orange (Life Technologies) were used to test the samples. The final concentration of the protein, compounds and dye were maintained at 5 µM, 100 µM and 10x respectively in a 20 µL reaction volume. […] Proteins were added to the 384-well plate first followed by the compounds. Samples were incubated for 10 mins at room temperature and protected from light. […] The plate was sealed with a MicroAmp optical adhesive film, centrifuged at 1500 RPM for 2 min, and then loaded onto the ViiA 7 real–time PCR instrument for fluorescence intensity measurements upon heating the sample from 25 to 95 °C at 1 °C/min increments. Data was exported to excel, fluorescence intensity data and its first derivative were normalized and plotted using GraphPad Prism to determine Tm. […]\n6 Read ViiA7 Read the therm al unfolding of the protein with ViiA7 real-tim e PCR system\n4 Prepare 50X dye in PBS: 1 μL Sypro Orange 5000X (Life Technologies), 99 μL ddH2O. Add 4 μL to each well Read the m elting tem perature from 25 to 95 °C using ViiA 7 real tim e PCR instrum ent by following the below instructions Perform therm al denaturation in 384-well assay plate […]"}, "[2]": {"target": "FLuc-C-HiBiT (firefly luciferase) (Photinus pyralis, UniProt P08659, form not given/L550V)", "sequence (P08659 2-550 L550V, form open)": "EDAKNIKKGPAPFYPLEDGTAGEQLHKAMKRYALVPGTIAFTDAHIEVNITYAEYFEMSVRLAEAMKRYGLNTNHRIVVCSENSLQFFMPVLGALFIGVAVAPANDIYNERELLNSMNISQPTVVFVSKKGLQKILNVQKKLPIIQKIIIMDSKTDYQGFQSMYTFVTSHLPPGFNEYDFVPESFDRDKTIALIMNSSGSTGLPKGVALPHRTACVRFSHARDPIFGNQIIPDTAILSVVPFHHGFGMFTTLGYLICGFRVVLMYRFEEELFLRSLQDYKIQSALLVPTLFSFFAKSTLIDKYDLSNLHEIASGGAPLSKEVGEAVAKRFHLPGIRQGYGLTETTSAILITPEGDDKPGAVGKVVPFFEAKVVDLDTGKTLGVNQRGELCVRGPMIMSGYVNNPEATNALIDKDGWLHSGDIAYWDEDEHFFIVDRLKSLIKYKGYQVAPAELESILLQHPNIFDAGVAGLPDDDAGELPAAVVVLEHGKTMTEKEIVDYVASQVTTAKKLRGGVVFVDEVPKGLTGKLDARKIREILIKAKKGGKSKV", "assay": "SDR assay, FLuc-C-HiBiT", "conditions": "for SDR assay statistics Ave RLU / SDR assay statistics S:B / SDR assay statistics S:N / SDR assay statistics Z’: 32.8 µM ligand; for 10 nM FLuc-C-HiBiT + 10 mM ATP, Mean / 10 nM FLuc-C-HiBiT No ATP, Mean: Log [PTC124]; for SDR + 10 mM ATP / SDR No ATP: 10 nM FLuc-C-HiBiT, normalized activity, Log [Compound]"}, "[3]": {"conditions": "FLuc-C-HiBiT (10 nM) + 10 mM ATP"}}, "data": [{"molecule": "CC(CNC(=O)C1CCN(C(=O)c2ncn3c2COC(c2ccccc2)C3)CC1)c1ccccc1", "note": "(stereo not drawn) [NCGC 00449795]", "values": [{"measurement": "Thermofluor FLuc, No ATP", "setting": "[1]", "value": 0.992}]}, {"molecule": "COc1ccc(NC(=O)C2CCN(C(=O)c3ncn4c3COC(c3ccccc3)C4)CC2)cc1Cl", "note": "(stereo not drawn) [NCGC 00449919]", "values": [{"measurement": "Thermofluor FLuc, No ATP", "setting": "[1]", "value": 0.994}]}, {"molecule": "O=C(O)c1cccc(-c2noc(-c3ccccc3F)n2)c1", "note": "[PTC124, reference compound]", "values": [{"measurement": "pSDR50, FLuc-C-HiBiT (10 nM)", "setting": "[2]; 0 μM ATP", "value": "5.73 ± 0.13"}, {"measurement": "pSDR50, FLuc-C-HiBiT (10 nM)", "setting": "[2]; 10 μM ATP", "value": "8.30 ± 0.07"}, {"measurement": "SDR assay statistics Ave RLU", "setting": "[2]; [3]", "value": 11178.8, "unit": "RLU"}, {"measurement": "SDR assay statistics S:B", "setting": "[2]; [3]", "value": 6.5}, {"measurement": "SDR assay statistics S:N", "setting": "[2]; [3]", "value": 12.2}, {"measurement": "SDR assay statistics Z’", "setting": "[2]; [3]", "value": 0.693}, {"measurement": "SDR assay statistics Ave RLU", "setting": "[2]; FLuc-C-HiBiT (10 nM) No ATP", "value": 6229.4, "unit": "RLU"}, {"measurement": "SDR assay statistics S:B", "setting": "[2]; FLuc-C-HiBiT (10 nM) No ATP", "value": 5.1}, {"measurement": "SDR assay statistics S:N", "setting": "[2]; FLuc-C-HiBiT (10 nM) No ATP", "value": 7.5}, {"measurement": "SDR assay statistics Z’", "setting": "[2]; FLuc-C-HiBiT (10 nM) No ATP", "value": 0.503}, {"measurement": "10 nM FLuc-C-HiBiT + 10 mM ATP, Mean", "setting": "[2]; M (SDR) -4.48", "value": 21802.2, "unit": "RLU"}, {"measurement": "10 nM FLuc-C-HiBiT No ATP, Mean", "setting": "[2]; M (SDR) -4.48", "value": 17458.7, "unit": "RLU"}, {"measurement": "10 nM FLuc-C-HiBiT + 10 mM ATP, Mean", "setting": "[2]; M (SDR) -4.96", "value": 22284.7, "unit": "RLU"}, {"measurement": "10 nM FLuc-C-HiBiT No ATP, Mean", "setting": "[2]; M (SDR) -4.96", "value": 16769.9, "unit": "RLU"}, {"measurement": "10 nM FLuc-C-HiBiT + 10 mM ATP, Mean", "setting": "[2]; M (SDR) -5.44", "value": 22342.5, "unit": "RLU"}, {"measurement": "10 nM FLuc-C-HiBiT No ATP, Mean", "setting": "[2]; M (SDR) -5.44", "value": 16051.7, "unit": "RLU"}, {"measurement": "10 nM FLuc-C-HiBiT + 10 mM ATP, Mean", "setting": "[2]; M (SDR) -5.91", "value": 22563.9, "unit": "RLU"}, {"measurement": "10 nM FLuc-C-HiBiT No ATP, Mean", "setting": "[2]; M (SDR) -5.91", "value": 15076.6, "unit": "RLU"}, {"measurement": "10 nM FLuc-C-HiBiT + 10 mM ATP, Mean", "setting": "[2]; M (SDR) -6.39", "value": 22424.3, "unit": "RLU"}, {"measurement": "10 nM FLuc-C-HiBiT No ATP, Mean", "setting": "[2]; M (SDR) -6.39", "value": 13877.2, "unit": "RLU"}, {"measurement": "10 nM FLuc-C-HiBiT + 10 mM ATP, Mean", "setting": "[2]; M (SDR) -6.87", "value": 22543.4, "unit": "RLU"}, {"measurement": "10 nM FLuc-C-HiBiT No ATP, Mean", "setting": "[2]; M (SDR) -6.87", "value": 13237.3, "unit": "RLU"}, {"measurement": "10 nM FLuc-C-HiBiT + 10 mM ATP, Mean", "setting": "[2]; M (SDR) -7.35", "value": 21860.7, "unit": "RLU"}, {"measurement": "10 nM FLuc-C-HiBiT No ATP, Mean", "setting": "[2]; M (SDR) -7.35", "value": 13241.3, "unit": "RLU"}, {"measurement": "10 nM FLuc-C-HiBiT + 10 mM ATP, Mean", "setting": "[2]; M (SDR) -7.82", "value": 20621.1, "unit": "RLU"}, {"measurement": "10 nM FLuc-C-HiBiT No ATP, Mean", "setting": "[2]; M (SDR) -7.82", "value": 13270.4, "unit": "RLU"}, {"measurement": "10 nM FLuc-C-HiBiT + 10 mM ATP, Mean", "setting": "[2]; M (SDR) -8.30", "value": 18655.3, "unit": "RLU"}, {"measurement": "10 nM FLuc-C-HiBiT No ATP, Mean", "setting": "[2]; M (SDR) -8.30", "value": 13170.2, "unit": "RLU"}, {"measurement": "10 nM FLuc-C-HiBiT + 10 mM ATP, Mean", "setting": "[2]; M (SDR) -8.78", "value": 16941.8, "unit": "RLU"}, {"measurement": "10 nM FLuc-C-HiBiT No ATP, Mean", "setting": "[2]; M (SDR) -8.78", "value": 13237.7, "unit": "RLU"}, {"measurement": "10 nM FLuc-C-HiBiT + 10 mM ATP, Mean", "setting": "[2]; M (SDR) -9.25", "value": 15920.6, "unit": "RLU"}, {"measurement": "10 nM FLuc-C-HiBiT No ATP, Mean", "setting": "[2]; M (SDR) -9.25", "value": 13300.5, "unit": "RLU"}, {"measurement": "10 nM FLuc-C-HiBiT + 10 mM ATP, Mean", "setting": "[2]; M (SDR) -9.73", "value": 15410.2, "unit": "RLU"}, {"measurement": "10 nM FLuc-C-HiBiT No ATP, Mean", "setting": "[2]; M (SDR) -9.73", "value": 13254.2, "unit": "RLU"}, {"measurement": "10 nM FLuc-C-HiBiT + 10 mM ATP, Mean", "setting": "[2]; M (SDR) -10.21", "value": 15302.7, "unit": "RLU"}, {"measurement": "10 nM FLuc-C-HiBiT No ATP, Mean", "setting": "[2]; M (SDR) -10.21", "value": 12964.2, "unit": "RLU"}, {"measurement": "10 nM FLuc-C-HiBiT + 10 mM ATP, Mean", "setting": "[2]; M (SDR) -10.69", "value": 15229.5, "unit": "RLU"}, {"measurement": "10 nM FLuc-C-HiBiT No ATP, Mean", "setting": "[2]; M (SDR) -10.69", "value": 13111.1, "unit": "RLU"}, {"measurement": "10 nM FLuc-C-HiBiT + 10 mM ATP, Mean", "setting": "[2]; M (SDR) -11.16", "value": 15146.3, "unit": "RLU"}, {"measurement": "10 nM FLuc-C-HiBiT No ATP, Mean", "setting": "[2]; M (SDR) -11.16", "value": 13296.1, "unit": "RLU"}, {"measurement": "10 nM FLuc-C-HiBiT + 10 mM ATP, Mean", "setting": "[2]; M (SDR) -11.64", "value": 14993.9, "unit": "RLU"}, {"measurement": "10 nM FLuc-C-HiBiT No ATP, Mean", "setting": "[2]; M (SDR) -11.64", "value": 13163.6, "unit": "RLU"}]}, {"molecule": "CC(CNC(=O)C1CCN(C(=O)c2ncn3c2COC(c2ccccc2)C3)CC1)c1ccccc1", "note": "(stereo not drawn) [compound 00449795]", "values": [{"measurement": "SDR + 10 mM ATP", "setting": "[2]; M -4.48", "value": 68.6}, {"measurement": "SDR No ATP", "setting": "[2]; M -4.48", "value": 10.5}, {"measurement": "SDR + 10 mM ATP", "setting": "[2]; M -4.96", "value": 61.3}, {"measurement": "SDR No ATP", "setting": "[2]; M -4.96", "value": 11.6}, {"measurement": "SDR + 10 mM ATP", "setting": "[2]; M -5.44", "value": 53.2}, {"measurement": "SDR No ATP", "setting": "[2]; M -5.44", "value": 11.0}, {"measurement": "SDR + 10 mM ATP", "setting": "[2]; M -5.91", "value": 34.2}, {"measurement": "SDR No ATP", "setting": "[2]; M -5.91", "value": 13.6}, {"measurement": "SDR + 10 mM ATP", "setting": "[2]; M -6.39", "value": 20.6}, {"measurement": "SDR No ATP", "setting": "[2]; M -6.39", "value": 11.0}, {"measurement": "SDR + 10 mM ATP", "setting": "[2]; M -6.87", "value": 11.1}, {"measurement": "SDR No ATP", "setting": "[2]; M -6.87", "value": 10.7}, {"measurement": "SDR + 10 mM ATP", "setting": "[2]; M -7.35", "value": 7.5}, {"measurement": "SDR No ATP", "setting": "[2]; M -7.35", "value": 9.2}, {"measurement": "SDR + 10 mM ATP", "setting": "[2]; M -7.82", "value": 10.0}, {"measurement": "SDR No ATP", "setting": "[2]; M -7.82", "value": 13.4}, {"measurement": "SDR + 10 mM ATP", "setting": "[2]; M -8.30", "value": 8.1}, {"measurement": "SDR No ATP", "setting": "[2]; M -8.30", "value": 10.9}, {"measurement": "SDR + 10 mM ATP", "setting": "[2]; M -8.78", "value": 7.1}, {"measurement": "SDR No ATP", "setting": "[2]; M -8.78", "value": 11.5}, {"measurement": "SDR + 10 mM ATP", "setting": "[2]; M -9.25", "value": 7.9}, {"measurement": "SDR No ATP", "setting": "[2]; M -9.25", "value": 9.6}, {"measurement": "% Activity (max response, + ATP)", "setting": "[2]; + ATP, SDR max. response, clade S", "value": 349.21, "unit": "%"}, {"measurement": "% Activity (max response, - ATP)", "setting": "[2]; - ATP, SDR max. response, clade S", "value": 0.00, "unit": "%"}, {"measurement": "ATP dependence of SDR assay output (in words)", "setting": "[2]; FLuc-C-HiBiT", "value": "strictly ATP-dependent"}]}]}
